Experiments:
Assay in all cases: relative viability (nuclei count vs DMSO), 5 days (fraction); higher = more cells survive
[1] = compound: Nc1ccn([C@@H]2O[C@H](CO)[C@@H](O)C2(F)F)c(=O)n1 [Gemcitabine] + O=C(c1cc(Cc2n[nH]c(=O)c3ccccc23)ccc1F)N1CCN(C(=O)C2CC2)CC1 [Olaparib] (partner 8 µM)
In short: (§1)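 Relative viability was taken as the ratio of nuclei in treated wells to nuclei in vehicle wells. Lung cancer cell lines in 1536-well plates received compounds by pin tool one day after seeding, either one drug alone or a fixed anchor-drug dose plus five library-drug doses (not always all listed) in √10 steps. Nuclei were counted on 4× images after 5 days of treatment, and values are medians of duplicate plates.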

[2] = compound: Nc1ccn([C@@H]2O[C@H](CO)[C@@H](O)C2(F)F)c(=O)n1 [Gemcitabine] + NC(=O)Nc1cc(-c2cccc(F)c2)sc1C(=O)N[C@H]1CCCNC1 [AZD7762] (partner 0.2 µM)
In short: as §1

[3] = compound: Nc1ccn([C@@H]2O[C@H](CO)[C@@H](O)C2(F)F)c(=O)n1 [Gemcitabine] + CS(=O)(=O)CCNCc1ccc(-c2ccc3ncnc(Nc4ccc(OCc5cccc(F)c5)c(Cl)c4)c3c2)o1 [Lapatinib] (partner 2 µM)
In short: as §1

[4] = compound: Nc1ccn([C@@H]2O[C@H](CO)[C@@H](O)C2(F)F)c(=O)n1 [Gemcitabine] + Nc1ncn([C@H]2C[C@H](O)[C@@H](CO)O2)c(=O)n1 [Decitabine] (partner 2 µM)
In short: as §1

Row | Cell Line | relative viability ([1]; first compound 0.001 µM) | relative viability ([1]; first compound 0.003162 µM) | relative viability ([1]; first compound 0.01 µM) | relative viability ([1]; first compound 0.03162 µM) | relative viability ([1]; first compound 0.1 µM) | relative viability ([2]; first compound 0.001 µM) | relative viability ([2]; first compound 0.003162 µM) | relative viability ([2]; first compound 0.01 µM) | relative viability ([2]; first compound 0.03162 µM) | relative viability ([2]; first compound 0.1 µM) | relative viability ([3]; first compound 0.001 µM) | relative viability ([3]; first compound 0.003162 µM) | relative viability ([3]; first compound 0.01 µM) | relative viability ([3]; first compound 0.03162 µM) | relative viability ([3]; first compound 0.1 µM) | relative viability ([4]; first compound 0.001 µM) | relative viability ([4]; first compound 0.003162 µM) | relative viability ([4]; first compound 0.01 µM) | relative viability ([4]; first compound 0.03162 µM) | relative viability ([4]; first compound 0.1 µM)
1 | HCC-366 | 0.332 | 0.389 | 0.124 | 0.0348 | 0.0152 | 0.27 | 0.16 | 0.0204 | 0.0203 | 0.0152 | 0.954 | 1.19 | 0.546 | 0.0287 | 0.0142 | 0.329 | 0.331 | 0.0609 | 0.0417 | 0.0234
2 | HCC-827 | 0.673 | 0.434 | 0.384 | 0.0193 | 0.162 | 0.128 | 0.12 | 0.107 | 0.11 | 0.133 | 0.181 | 0.177 | 0.18 | 0.138 | 0.126 | 0.333 | 0.226 | 0.274 | 0.166 | 0.186
3 | HOP-62 | 0.516 | 0.387 | 0.0703 | 0.0534 | 0.0449 | 0.287 | 0.08 | 0.0514 | 0.0757 | 0.0617 | 0.961 | 0.863 | 0.301 | 0.0724 | 0.0756 | 0.253 | 0.172 | 0.16 | 0.0888 | 0.121
4 | IA-LM | 0.854 | 0.788 | 0.797 | 0.0888 | 0.0689 | – | – | – | – | – | – | 0.853 | 0.353 | 0.124 | 0.0354 | – | – | – | – | –
5 | LCLC-103H | 0.771 | 0.758 | 0.734 | 0.58 | 0.367 | 0.788 | 0.761 | 0.66 | 0.24 | 0.215 | – | – | – | – | – | 0.694 | 0.738 | 0.715 | 0.674 | 0.57
6 | NCI-H441 | 0.651 | 0.241 | 0.187 | 0.161 | 0.116 | 0.603 | 0.134 | 0.11 | 0.165 | 0.128 | – | – | – | – | – | 0.208 | 0.212 | 0.17 | 0.167 | 0.127
7 | NCI-H520 | 0.388 | 0.48 | 0.174 | 0.159 | 0.132 | – | – | – | – | – | 0.901 | 1.11 | 0.474 | 0.186 | 0.121 | 0.525 | 0.48 | 0.289 | 0.189 | 0.198
8 | NCI-H522 | 0.639 | 0.641 | 0.323 | 0.306 | 0.3 | 0.709 | 0.384 | 0.286 | 0.323 | 0.204 | – | – | – | – | – | 0.653 | 0.577 | 0.502 | 0.352 | 0.342
9 | NCI-H661 | 0.78 | 0.783 | 0.655 | 0.274 | 0.232 | – | – | – | – | – | 0.618 | 0.47 | 0.287 | 0.216 | 0.171 | 0.569 | 0.582 | 0.465 | 0.346 | 0.237
10 | NCI-H1563 | – | – | – | – | – | – | – | – | – | – | 1.01 | 1.19 | 0.901 | 0.704 | 0.612 | – | – | – | – | –
11 | NCI-H1648 | 1.01 | 0.659 | 0.497 | 0.335 | 0.227 | 0.686 | 0.551 | 0.401 | 0.3 | 0.279 | – | – | – | – | – | 0.515 | 0.443 | 0.442 | 0.315 | 0.293
12 | NCI-H1650 | 0.886 | 0.522 | 0.479 | 0.12 | 0.122 | – | – | – | – | – | 0.669 | 0.706 | 0.406 | 0.179 | 0.17 | 0.467 | 0.369 | 0.239 | 0.222 | 0.155
13 | NCI-H1703 | 0.359 | 0.266 | 0.0911 | 0.119 | 0.105 | 0.118 | 0.104 | 0.105 | 0.0773 | 0.0798 | 0.898 | 0.262 | 0.156 | 0.164 | 0.114 | – | – | – | – | –
14 | NCI-H2009 | 0.717 | 0.436 | 0.191 | 0.102 | 0.0738 | – | – | – | – | – | 0.929 | 0.624 | 0.205 | 0.129 | 0.192 | 0.363 | 0.264 | 0.233 | 0.141 | 0.114
15 | NCI-H2023 | 0.505 | 0.414 | 0.236 | 0.161 | 0.0679 | – | – | – | – | – | 1.04 | 0.99 | 0.424 | 0.127 | 0.0738 | 0.224 | 0.217 | 0.126 | 0.0929 | 0.0689
16 | NCI-H2228 | 0.627 | 0.333 | 0.152 | 0.144 | 0.0825 | – | – | – | – | – | 1.06 | 0.827 | 0.207 | 0.109 | 0.148 | – | – | – | – | –
17 | NCI-H2342 | 0.457 | 0.401 | 0.277 | 0.244 | 0.259 | 0.473 | 0.382 | 0.333 | 0.235 | 0.374 | – | – | – | – | – | 0.694 | 0.65 | 0.532 | 0.537 | 0.337
18 | SK-LU-1 | 0.431 | 0.188 | 0.181 | 0.183 | 0.168 | – | – | – | – | – | 0.89 | 0.509 | 0.162 | 0.134 | 0.195 | 0.623 | 0.635 | 0.376 | 0.24 | 0.246
19 | SK-MES-1 | 0.587 | 0.22 | 0.165 | 0.199 | 0.161 | – | – | – | – | – | 0.499 | 0.468 | 0.295 | 0.201 | 0.203 | 0.387 | 0.264 | 0.168 | 0.172 | 0.152
20 | SW 900 | 0.837 | 0.543 | 0.165 | 0.168 | 0.134 | 0.423 | 0.214 | 0.109 | 0.147 | 0.112 | – | – | – | – | – | 0.325 | 0.372 | 0.267 | 0.148 | 0.169
21 | SW 1573 | 0.413 | 0.295 | 0.0949 | 0.102 | 0.0546 | – | – | – | – | – | 1.07 | 0.994 | 0.681 | 0.148 | 0.082 | 0.529 | 0.158 | 0.113 | 0.0711 | 0.0511
22 | UMC-11 | 0.41 | 0.496 | 0.356 | 0.38 | 0.247 | – | – | – | – | – | 1.04 | 1.06 | 0.98 | 0.879 | 0.208 | 0.57 | 0.417 | 0.518 | 0.37 | 0.311

Reference: the supplement of paper PMC10307832
